This data set concerns Artemia salina. In words: Toxicity against Artemia salina. The settings on record: in vivo. The format is organism-based.

Each structure is given as a SMILES string.

As to `C/C1=C\C=C(\C(C)C)[C@@H](O)C[C@]2(C)O[C@H]2CC/C(C)=C/CC1`, the LC50 worked out at 50 ppm.

Take `CC(=O)O[C@H]1/C(C(C)C)=C\C=C(/C)CC/C=C(\C)CC[C@@H]2O[C@]2(C)[C@H]1C(C)=O`: the LC50 amounted to 110 ppm.

In the case of `CC(=O)O[C@@H]1/C(C(C)C)=C\C=C(/C)CC/C=C(\C)CC[C@@H]2O[C@]2(C)[C@H]1O` [FLACCIDOXIDE], the LC50 stood at 180 ppm.

Broadly, the LC50 is the concentration that kills 50% of the test population. The low end stands for a more lethal substance, the high end for a less lethal substance.
